From US20240116921A1, “LACTAM (HETERO)[…] DERIVATIVES AS INHIBITORS OF ERBB2” (EnLiven Therapeutics, Inc., priority 2020, published 2024)

Experiments:
A431 = assay: Cell viability assay (CellTiter Glo), A431; format: cell-based; details: Homo sapiens, A-431, A431 cells, 72 hours
Ba/F3 ERBB2 wt = Ba/F3 ERBB2 wt (Homo sapiens, UniProt P04626); assay: Cell viability assay, Ba/F3 ERBB2 wt; format: cell-based, mouse; details: Ba/F3 ERBB2 wt cells, 72 hours, CellTiter Glo; read-out: IC50, cell viability, Ba/F3 ERBB2 wt
Sequence of Ba/F3 ERBB2 wt (P04626 whole entry, change not shown): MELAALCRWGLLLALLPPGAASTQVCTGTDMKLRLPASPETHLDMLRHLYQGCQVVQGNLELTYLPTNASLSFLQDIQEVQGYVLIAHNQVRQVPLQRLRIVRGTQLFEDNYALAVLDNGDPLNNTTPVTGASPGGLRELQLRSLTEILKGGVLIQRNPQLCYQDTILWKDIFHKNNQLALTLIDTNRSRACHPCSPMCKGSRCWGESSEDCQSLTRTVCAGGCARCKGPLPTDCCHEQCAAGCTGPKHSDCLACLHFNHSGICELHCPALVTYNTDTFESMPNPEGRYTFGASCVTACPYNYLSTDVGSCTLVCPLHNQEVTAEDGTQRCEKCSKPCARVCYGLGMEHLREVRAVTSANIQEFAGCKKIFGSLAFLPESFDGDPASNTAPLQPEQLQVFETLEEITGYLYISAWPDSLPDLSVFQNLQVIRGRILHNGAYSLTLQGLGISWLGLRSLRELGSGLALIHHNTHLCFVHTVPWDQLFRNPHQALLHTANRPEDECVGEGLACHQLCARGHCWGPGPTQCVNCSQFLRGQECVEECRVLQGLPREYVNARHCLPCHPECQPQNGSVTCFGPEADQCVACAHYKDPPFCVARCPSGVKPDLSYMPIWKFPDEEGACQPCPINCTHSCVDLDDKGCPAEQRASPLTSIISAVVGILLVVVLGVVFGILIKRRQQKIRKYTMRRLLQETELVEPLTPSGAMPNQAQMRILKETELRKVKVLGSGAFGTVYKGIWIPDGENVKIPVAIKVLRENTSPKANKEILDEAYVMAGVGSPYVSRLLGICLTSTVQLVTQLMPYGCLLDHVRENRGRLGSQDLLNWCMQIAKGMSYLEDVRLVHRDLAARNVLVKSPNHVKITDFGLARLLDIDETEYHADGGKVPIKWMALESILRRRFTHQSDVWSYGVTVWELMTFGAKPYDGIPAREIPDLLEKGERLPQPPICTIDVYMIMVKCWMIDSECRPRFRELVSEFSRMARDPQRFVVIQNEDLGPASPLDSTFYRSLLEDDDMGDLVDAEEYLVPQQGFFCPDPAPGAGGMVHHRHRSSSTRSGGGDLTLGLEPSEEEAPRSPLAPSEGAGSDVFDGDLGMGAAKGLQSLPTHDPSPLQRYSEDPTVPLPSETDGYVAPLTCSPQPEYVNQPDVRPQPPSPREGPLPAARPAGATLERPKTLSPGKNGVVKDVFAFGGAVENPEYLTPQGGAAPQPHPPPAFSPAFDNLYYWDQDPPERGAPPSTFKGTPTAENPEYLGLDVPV
Experimental: (§1) Cells were treated with compounds, and cell viability was measured as a metric of kinase inhibition.
(§2) The Ba/F3 cell line is IL-3-dependent mouse cell line derived from the C3H mouse strain. Ba/F3 cell lines were engineered to express human ERBB2 or EGFR kinases, rendering the cells IL-3 independent. The lines were generated via retroviral transduction utilizing a Moloney murine leukemia virus (MMLV) promoter, and constructs are stably integrated into the cell genome. The sequences of the ERBB2 and EGFR genes used were NCBI Reference Sequences NM_004448.3 and NM_005228.3, respectively.
(§3) Similarly, Ba/F3 cell lines engineered to express EGFR, ERBB2, or ERBB2 mutants were grown, harvested, counted and seeded at 3000 cells per well in 96-well plates. A subset of wells contained media only (low control, “LC”).
(§4) Table B1 provides the growth media and number of cells seeded per well for the each cell line.
(§5) Plates were placed in a 37° C., 5% CO2 incubator for 72 hours. Plates were then removed from the incubator and equilibrated for 15 minutes at room temperature. 40 μl of CellTiter Glo reagent (Promega) was added to measure the relative level of metabolically active cells by quantifying intracellular ATP concentrations. Plates were incubated for 30 minutes at room temperature, and luminescence was measured. Percent viability was normalized to a vehicle control only using the following formula: % viability=100×(Lumsample−LumLC)/(LumHC−Lum^LC). Graphical curves were fitted using a nonlinear regression model with a sigmoidal dose response.

Ba/F3 ERBB2-V777L = Ba/F3 ERBB2-V777L (Homo sapiens, UniProt P04626, V777L, cells depend on it); assay: Cell viability assay, Ba/F3 ERBB2-V777L; format: cell-based, mouse; details: 72 hours, CellTiter Glo, read-out: IC50, cell viability, Ba/F3 ERBB2-V777L
Experimental: as §1, §2, §3, §4, §5

Ba/F3 ERBB2-T798M = Ba/F3 ERBB2-T798M (Homo sapiens, UniProt P04626, T798M, cells depend on it); assay: Cell viability assay, Ba/F3 ERBB2-T798M; format: cell-based, mouse; details: 72 hours, CellTiter Glo, read-out: IC50, cell viability, Ba/F3 ERBB2-T798M
Sequence of Ba/F3 ERBB2-T798M (P04626 whole entry T798M): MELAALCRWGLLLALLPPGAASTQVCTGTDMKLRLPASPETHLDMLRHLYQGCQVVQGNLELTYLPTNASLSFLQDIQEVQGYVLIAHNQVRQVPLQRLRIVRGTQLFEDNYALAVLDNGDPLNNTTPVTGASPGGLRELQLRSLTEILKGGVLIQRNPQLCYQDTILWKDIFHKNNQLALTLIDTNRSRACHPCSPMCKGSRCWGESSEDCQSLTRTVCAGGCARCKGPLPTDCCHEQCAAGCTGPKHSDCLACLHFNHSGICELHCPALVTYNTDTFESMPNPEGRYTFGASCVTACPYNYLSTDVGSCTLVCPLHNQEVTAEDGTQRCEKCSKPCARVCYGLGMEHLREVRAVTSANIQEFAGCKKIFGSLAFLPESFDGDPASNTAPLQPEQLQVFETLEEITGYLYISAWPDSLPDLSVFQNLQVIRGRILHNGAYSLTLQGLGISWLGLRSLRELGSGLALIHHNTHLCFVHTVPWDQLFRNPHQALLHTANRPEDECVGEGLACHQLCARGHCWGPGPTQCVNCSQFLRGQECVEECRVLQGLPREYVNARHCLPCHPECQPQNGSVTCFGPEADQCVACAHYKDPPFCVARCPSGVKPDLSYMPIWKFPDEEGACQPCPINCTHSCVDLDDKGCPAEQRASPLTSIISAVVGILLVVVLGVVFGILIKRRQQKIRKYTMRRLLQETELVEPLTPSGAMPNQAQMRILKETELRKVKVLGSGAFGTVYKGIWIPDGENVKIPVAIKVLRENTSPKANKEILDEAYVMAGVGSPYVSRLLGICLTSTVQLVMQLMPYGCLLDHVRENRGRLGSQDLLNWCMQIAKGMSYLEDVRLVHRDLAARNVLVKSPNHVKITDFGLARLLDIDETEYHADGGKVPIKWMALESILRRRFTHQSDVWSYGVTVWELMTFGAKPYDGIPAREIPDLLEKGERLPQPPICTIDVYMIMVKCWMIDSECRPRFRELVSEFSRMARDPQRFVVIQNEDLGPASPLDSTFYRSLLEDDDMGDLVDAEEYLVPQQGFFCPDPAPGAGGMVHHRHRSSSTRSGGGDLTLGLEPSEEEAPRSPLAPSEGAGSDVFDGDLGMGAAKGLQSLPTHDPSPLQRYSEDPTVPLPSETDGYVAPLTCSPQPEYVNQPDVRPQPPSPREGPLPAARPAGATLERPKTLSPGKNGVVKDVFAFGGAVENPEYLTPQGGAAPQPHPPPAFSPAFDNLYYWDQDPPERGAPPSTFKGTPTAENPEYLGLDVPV
Experimental: as §1, §2, §3, §4, §5

Ba/F3 ERBB2-L755S = Ba/F3 ERBB2-L755S (Homo sapiens, UniProt P04626, L755S, cells depend on it); assay: Cell viability assay, Ba/F3 ERBB2-L755S; format: cell-based, mouse; details: 72 hours, CellTiter Glo, read-out: IC50, cell viability, Ba/F3 ERBB2-L755S
Sequence of Ba/F3 ERBB2-L755S (P04626 whole entry L755S): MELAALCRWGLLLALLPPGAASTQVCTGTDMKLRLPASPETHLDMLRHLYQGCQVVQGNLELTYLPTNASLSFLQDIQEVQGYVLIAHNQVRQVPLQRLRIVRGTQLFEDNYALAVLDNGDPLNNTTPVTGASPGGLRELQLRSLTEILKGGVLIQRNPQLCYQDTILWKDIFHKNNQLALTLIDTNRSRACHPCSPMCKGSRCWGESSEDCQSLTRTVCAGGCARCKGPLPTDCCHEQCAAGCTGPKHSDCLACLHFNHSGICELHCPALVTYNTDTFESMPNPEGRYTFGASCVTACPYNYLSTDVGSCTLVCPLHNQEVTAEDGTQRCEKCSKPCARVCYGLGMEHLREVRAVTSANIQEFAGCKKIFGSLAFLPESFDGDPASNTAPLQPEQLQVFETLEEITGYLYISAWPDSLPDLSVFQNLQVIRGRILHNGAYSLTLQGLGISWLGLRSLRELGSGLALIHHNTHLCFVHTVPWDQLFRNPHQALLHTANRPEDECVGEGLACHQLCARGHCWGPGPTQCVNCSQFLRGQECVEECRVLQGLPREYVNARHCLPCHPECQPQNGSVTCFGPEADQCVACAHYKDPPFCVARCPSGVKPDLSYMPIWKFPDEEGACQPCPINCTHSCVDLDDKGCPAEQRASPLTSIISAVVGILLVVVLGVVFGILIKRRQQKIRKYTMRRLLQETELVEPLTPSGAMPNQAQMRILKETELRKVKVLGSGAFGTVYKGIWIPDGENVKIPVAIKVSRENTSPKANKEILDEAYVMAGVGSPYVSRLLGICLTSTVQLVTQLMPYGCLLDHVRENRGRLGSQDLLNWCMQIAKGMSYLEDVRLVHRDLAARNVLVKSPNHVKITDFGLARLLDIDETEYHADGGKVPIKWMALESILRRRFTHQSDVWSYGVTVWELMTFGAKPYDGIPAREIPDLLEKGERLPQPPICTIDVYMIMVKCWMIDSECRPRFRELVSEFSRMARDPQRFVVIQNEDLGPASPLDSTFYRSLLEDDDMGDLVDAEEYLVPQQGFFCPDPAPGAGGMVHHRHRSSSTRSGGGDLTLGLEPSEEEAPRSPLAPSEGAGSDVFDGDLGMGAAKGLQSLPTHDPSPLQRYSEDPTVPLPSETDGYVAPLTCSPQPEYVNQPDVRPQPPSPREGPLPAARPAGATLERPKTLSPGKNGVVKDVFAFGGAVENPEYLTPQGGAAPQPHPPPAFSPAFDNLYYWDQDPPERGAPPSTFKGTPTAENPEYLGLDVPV
Experimental: as §1, §2, §3, §4, §5

Ba/F3 ERBB2-L869R = Ba/F3 ERBB2-L869R (Homo sapiens, UniProt P04626, L869R, cells depend on it); assay: Cell viability assay, Ba/F3 ERBB2-L869R; format: cell-based, mouse; details: 72 hours, CellTiter Glo, read-out: IC50, cell viability, Ba/F3 ERBB2-L869R
Sequence of Ba/F3 ERBB2-L869R (P04626 whole entry L869R): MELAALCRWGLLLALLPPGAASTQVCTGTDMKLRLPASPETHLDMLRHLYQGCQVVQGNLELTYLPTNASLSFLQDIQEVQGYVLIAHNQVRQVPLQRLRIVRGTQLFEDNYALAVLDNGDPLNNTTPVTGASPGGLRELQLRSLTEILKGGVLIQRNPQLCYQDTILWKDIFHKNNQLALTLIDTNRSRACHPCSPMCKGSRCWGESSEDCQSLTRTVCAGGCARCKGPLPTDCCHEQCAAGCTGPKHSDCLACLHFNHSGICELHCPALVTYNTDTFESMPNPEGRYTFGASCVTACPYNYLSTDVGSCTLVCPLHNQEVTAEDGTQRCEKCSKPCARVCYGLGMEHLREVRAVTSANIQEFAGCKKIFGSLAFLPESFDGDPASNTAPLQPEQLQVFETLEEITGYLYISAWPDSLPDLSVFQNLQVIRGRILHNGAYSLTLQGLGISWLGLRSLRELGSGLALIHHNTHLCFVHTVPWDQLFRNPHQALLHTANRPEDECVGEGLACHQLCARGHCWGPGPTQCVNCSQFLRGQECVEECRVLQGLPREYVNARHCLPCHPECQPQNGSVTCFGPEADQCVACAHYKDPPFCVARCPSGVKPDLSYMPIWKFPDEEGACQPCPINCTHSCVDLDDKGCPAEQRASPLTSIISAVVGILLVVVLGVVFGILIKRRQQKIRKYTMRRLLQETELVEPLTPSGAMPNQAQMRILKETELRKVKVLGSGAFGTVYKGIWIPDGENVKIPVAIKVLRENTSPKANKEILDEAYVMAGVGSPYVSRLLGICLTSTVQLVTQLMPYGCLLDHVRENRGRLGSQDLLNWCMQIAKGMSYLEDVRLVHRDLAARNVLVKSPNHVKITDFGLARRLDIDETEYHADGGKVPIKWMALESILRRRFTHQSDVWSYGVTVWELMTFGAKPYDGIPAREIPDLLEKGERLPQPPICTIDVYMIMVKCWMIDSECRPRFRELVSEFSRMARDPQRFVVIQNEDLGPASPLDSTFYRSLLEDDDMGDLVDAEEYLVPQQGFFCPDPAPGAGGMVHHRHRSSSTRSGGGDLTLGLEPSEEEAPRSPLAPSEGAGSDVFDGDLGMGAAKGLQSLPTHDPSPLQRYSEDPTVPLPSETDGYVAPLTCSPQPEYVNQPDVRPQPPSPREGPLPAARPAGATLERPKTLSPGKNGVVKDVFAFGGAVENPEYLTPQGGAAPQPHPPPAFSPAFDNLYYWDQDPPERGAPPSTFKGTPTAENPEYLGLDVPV
Experimental: as §1, §2, §3, §4, §5

[1] = biological target: T1, phosphorylated EGFR (pEGFR) (Homo sapiens, UniProt P00533); assay: Detection of phosphorylated EGFR (pEGFR) in EGF-stimulated A431 cells; format: cell-based; details: A431 cells (10% FBS), 4 hours incubation, EGF 30 ng/mL 10 minutes, AlphaLISA
T1 construct: performed to measure phosphorylated EGFR levels using A431 cells (10% FBS); endogenous in cells; host or cells: A431
How it was run: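 AlphaLISA read-out of EGFR phosphorylation after a 10-min EGF pulse (30 ng/mL final). A431 cells (10% FBS) had been exposed to compound for 4 h at 37 °C. IC50 was fitted from % inhibition normalised to DMSO and staurosporine control lysates.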

Ba/F3 EGFR wt = Ba/F3 EGFR wt (Homo sapiens, UniProt P00533); assay: Cell viability assay, Ba/F3 EGFR wt; format: cell-based, mouse; details: Ba/F3 EGFR wt cells, 72 hours, CellTiter Glo; read-out: IC50, cell viability, Ba/F3 EGFR wt
Experimental: as §1, §2, §3, §4
(§6) Plates were placed in a 37° C., 5% CO2 incubator for 72 hours. Plates were then removed from the incubator and equilibrated for 15 minutes at room temperature. 40 μl of CellTiter Glo reagent (Promega) was added to measure the relative level of metabolically active cells by quantifying intracellular ATP concentrations. Plates were incubated for 30 minutes at room temperature, and luminescence was measured. […]

[2] = biological target: BaF3-EGFR-V769_D770insASV (Homo sapiens, UniProt P00533, DUP767-769, cells depend on it); assay: Cell viability assay, BaF3-EGFR-V769_D770insASV; format: cell-based, mouse; details: 72 hours, CellTiter Glo, read-out: IC50, cell viability, BaF3-EGFR-V769_D770insASV
Experimental: as §1, §2, §3, §4, §6

[3] = biological target: BaF3_EGFR-D770-N771insSVD (Homo sapiens, UniProt P00533, DUP768-770, cells depend on it); assay: Cell viability assay, BaF3_EGFR-D770-N771insSVD; format: cell-based, mouse; details: 72 hours, CellTiter Glo, read-out: IC50, cell viability, BaF3_EGFR-D770-N771insSVD
Experimental: as §1, §2, §3, §4, §6

[4] = biological target: BaF3_EGFR-H773_V774insNPH (Homo sapiens, UniProt P00533, DUP771-773, cells depend on it); assay: Cell viability assay, BaF3_EGFR-H773_V774insNPH; format: cell-based, mouse; details: 72 hours, CellTiter Glo, read-out: IC50, cell viability, BaF3_EGFR-H773_V774insNPH
Experimental: as §1, §2, §3, §4, §6

Row | IC50 (A431) [nM] | IC50 [1] [nM] | Compound | GI50 (Ba/F3 ERBB2 wt) [nM] | GI50 (Ba/F3 ERBB2-V777L) [nM] | GI50 (Ba/F3 ERBB2-T798M) [nM] | GI50 (Ba/F3 ERBB2-L755S) [nM] | GI50 (Ba/F3 ERBB2-L869R) [nM] | GI50 (Ba/F3 EGFR wt) [nM] | GI50 [2] [nM] | GI50 [3] [nM] | GI50 [4] [nM]
1 | 1280 | 205 | C=C1CCN(c2ccc3ncnc(Nc4ccc(Oc5ccn6ccnc6c5)c(C)c4)c3c2)C1=O [Compound 4, 1-[4-[(4-[imidazo[1,2-a]pyridin-7-yloxy]-3-methylphenyl)amino]quinazolin-6-yl]-3-methylidenepyrrolidin-2-one] | 3.9 | 1.3 | 154 | 14 | 4.8 |  |  |  | 
2 | 5800 | 1230 | C=C1CCN(c2ccc3ncnc(Nc4ccc(Oc5ccn6ncnc6c5)c(C)c4)c3c2)C1=O [Compound 1, 1-[4-[(3-methyl-4-[[1,2,4]triazolo[1,5-a]pyridin-7-yloxy]phenyl)amino]quinazolin-6-yl]-3-methylidenepyrrolidin-2-one] | 2.3 | 0.41 | 151 | 13 | 3.6 | > 10000 | 4510 | 4060 | 9830
